Measurements reported in ChEMBL document CHEMBL3856280, “Targeting the HSP60/10 chaperonin systems of Trypanosoma brucei as a strategy for treating African sleeping sickness” (Bioorg Med Chem Lett, 2016).

How the values were obtained:
[1] = tested on: Trypanosoma brucei brucei; test: Antitrypanosomal activity against Trypanosoma brucei brucei Lister 427 VSG 221 [TetR T7RNAP] transgenic bloodstream forms assessed as reduction in cell viability after 48 hrs by alamar blue assay; format: functional; conditions: Lister 427 VSG 221, 48 h
E. coli GroEL/ES [2] = molecular target: T1, E. coli GroEL/ES (Escherichia coli, UniProt P0A6F5); test: Inhibition of Escherichia coli GroEL/GroES expressed in Escherichia coli DH5alpha/BL21 (DE3) assessed as inhibition of denatured MDH refolding preincubated for 10 mins followed by ATP addition measured after 20 to 40 mins by fluorescence based assay
HSP60/HSP10 [3] = molecular target: T2, HSP60/HSP10 (Homo sapiens, UniProt P10809); test: Inhibition of human mitochondrial HSP60/HSP10 expressed in Escherichia coli DH5alpha/BL21 (DE3) assessed as inhibition of denatured MDH refolding preincubated for 10 mins followed by ATP addition measured after 40 to 60 mins by fluorescence based assay
E. coli GroEL/ES [4] = molecular target: T1, E. coli GroEL/ES; test: Inhibition of Escherichia coli GroEL/GroES-ATPase activity expressed in Escherichia coli DH5alpha/BL21 (DE3) assessed as inhibition of denatured MDH refolding preincubated for 10 mins followed by ATP addition measured after 20 to 40 mins by malachite green dye based fluorescence assay
HSP60/HSP10 [5] = molecular target: T2, HSP60/HSP10; test: Inhibition of human mitochondrial HSP60/HSP10-ATPase activity expressed in Escherichia coli DH5alpha/BL21 (DE3) assessed as inhibition of denatured MDH refolding preincubated for 10 mins followed by ATP addition measured after 40 to 60 mins by malachite green dye based fluorescence assay
[6] = Cytotoxicity against human THLE3 cells assessed as reduction in cell viability after 48 hrs by alamar blue assay; format: toxicity, cell-based
[7] = Cytotoxicity against HEK293 cells assessed as reduction in cell viability after 48 hrs by alamar blue assay; format: toxicity, cell-based; conditions: human
[8] = Inhibition of pig heart native MDH reporter reaction after 20 to 40 mins by fluorescence based assay; design: species or system Sus scrofa

T2 sequence (P10809 whole entry): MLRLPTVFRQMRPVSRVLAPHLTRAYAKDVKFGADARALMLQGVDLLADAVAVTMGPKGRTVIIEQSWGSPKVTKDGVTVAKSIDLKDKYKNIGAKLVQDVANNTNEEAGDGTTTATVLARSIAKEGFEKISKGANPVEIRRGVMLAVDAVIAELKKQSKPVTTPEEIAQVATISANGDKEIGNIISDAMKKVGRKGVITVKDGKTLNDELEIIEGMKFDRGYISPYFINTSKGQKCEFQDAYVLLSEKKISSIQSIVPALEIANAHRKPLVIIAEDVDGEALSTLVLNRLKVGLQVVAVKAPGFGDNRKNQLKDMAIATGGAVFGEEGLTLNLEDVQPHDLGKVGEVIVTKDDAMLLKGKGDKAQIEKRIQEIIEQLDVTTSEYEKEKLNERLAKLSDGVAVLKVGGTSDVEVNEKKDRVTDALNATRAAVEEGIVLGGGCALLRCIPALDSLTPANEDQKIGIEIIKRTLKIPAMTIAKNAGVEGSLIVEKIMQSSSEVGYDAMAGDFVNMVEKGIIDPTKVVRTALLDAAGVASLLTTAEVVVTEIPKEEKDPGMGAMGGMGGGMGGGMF
T2 sequence (P61604 whole entry, further chain): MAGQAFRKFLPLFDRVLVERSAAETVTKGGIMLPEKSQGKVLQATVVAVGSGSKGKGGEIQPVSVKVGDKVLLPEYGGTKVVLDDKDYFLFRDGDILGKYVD
T1 sequence (P0A6F5 whole entry, looked up): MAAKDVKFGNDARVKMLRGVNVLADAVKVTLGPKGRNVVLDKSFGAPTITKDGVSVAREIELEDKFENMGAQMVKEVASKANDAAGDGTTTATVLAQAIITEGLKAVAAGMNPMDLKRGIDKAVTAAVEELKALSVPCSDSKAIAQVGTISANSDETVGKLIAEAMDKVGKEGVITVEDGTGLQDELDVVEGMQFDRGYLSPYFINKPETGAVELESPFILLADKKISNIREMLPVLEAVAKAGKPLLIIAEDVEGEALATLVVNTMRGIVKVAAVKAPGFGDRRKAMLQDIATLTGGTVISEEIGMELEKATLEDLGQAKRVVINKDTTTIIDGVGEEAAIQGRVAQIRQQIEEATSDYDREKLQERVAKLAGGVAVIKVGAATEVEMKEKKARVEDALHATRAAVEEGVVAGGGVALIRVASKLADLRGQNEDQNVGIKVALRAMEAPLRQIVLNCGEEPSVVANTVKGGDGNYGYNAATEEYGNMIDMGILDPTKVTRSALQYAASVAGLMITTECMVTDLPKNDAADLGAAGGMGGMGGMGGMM

SMILES	EC50 [1] [µM]	IC50 (E. coli GroEL/ES [2]) [µM]	IC50 (HSP60/HSP10 [3]) [µM]	IC50 (E. coli GroEL/ES [4]) [µM]	IC50 (HSP60/HSP10 [5]) [µM]	EC50 at 48 h [6] [µM]	EC50 at 48 h [7] [µM]	IC50 [8] [µM]
O=S(=O)(Nc1ccc(-c2nc3cc(NS(=O)(=O)c4ccc5ncsc5c4)ccc3o2)cc1)c1ccc2ncsc2c1	25	0.81	49	0.55	> 250	30	95	> 63
N=C(N)c1ccc(OCCCCCOc2ccc(C(=N)N)cc2)cc1 [PENTAMIDINE]	< 0.019	> 100	> 100	> 250	> 250	19	> 100	> 63
O=S(=O)(Nc1ccc(-c2nc3cc(NS(=O)(=O)c4cccc5ccccc45)ccc3o2)cc1)c1cccc2ccccc12	2.1	23	> 100	54	144	69	> 100	> 63
CC1CS(=O)(=O)CCN1/N=C/c1ccc([N+](=O)[O-])o1 (configuration not stated) [NIFURTIMOX]	2.8	> 100	> 100	> 250	> 250	> 100	> 100	> 63
O=S(=O)(Nc1ccc(-c2nc3cc(NS(=O)(=O)c4ccccc4Br)ccc3o2)cc1)c1ccccc1Br	28	63	> 100	144	> 250	37	28	> 63
O=S(=O)(Nc1ccc(-c2nc3cc(NS(=O)(=O)c4cccs4)ccc3o2)cc1)c1cccs1	17	4.6	57	6.7	> 250	44	26	> 63
O=S(=O)(Nc1ccc(-c2nc3cc(NS(=O)(=O)c4cccc5nonc45)ccc3o2)cc1)c1cccc2nonc12	> 42	32	66	> 250	212	58	45	> 63
O=S(=O)(Nc1ccc(-c2nc3cc(NS(=O)(=O)c4cccc(Cl)c4)ccc3o2)cc1)c1cccc(Cl)c1	4.5	18	> 100	> 250	> 250	17	21	> 63
COc1ccccc1S(=O)(=O)Nc1ccc(-c2nc3cc(NS(=O)(=O)c4ccccc4OC)ccc3o2)cc1	2.7	69	> 100	> 250	> 250	> 100	79	> 63
O=S(=O)(Nc1ccc(-c2nc3cc(NS(=O)(=O)c4cccc(F)c4)ccc3o2)cc1)c1cccc(F)c1	10	5.3	68	5.1	> 250	20	24	> 63
O=S(=O)(Cc1ccccc1)Nc1ccc(-c2nc3cc(NS(=O)(=O)Cc4ccccc4)ccc3o2)cc1	13	55	> 100	208	> 250	29	19	> 63
NCCCC(N)(C(=O)O)C(F)F (configuration not stated) [EFLORNITHINE]	> 42	> 100	> 100	> 250	> 250	> 100	> 100	> 63
Cc1ccc(C(=O)Nc2ccc(S(=O)(=O)O)c3cc(S(=O)(=O)O)cc(S(=O)(=O)O)c23)cc1NC(=O)c1cccc(NC(=O)Nc2cccc(C(=O)Nc3cc(C(=O)Nc4ccc(S(=O)(=O)O)c5cc(S(=O)(=O)O)cc(S(=O)(=O)O)c45)ccc3C)c2)c1 [SURAMIN]	0.12	7.9	11	> 250	> 250	> 100	> 100	> 63
O=S(=O)(Nc1ccc(-c2nc3cc(NS(=O)(=O)c4ccccc4C(F)(F)F)ccc3o2)cc1)c1ccccc1C(F)(F)F	28	25	> 100	21	> 250	50	66	> 63
